Experimental data reported in patent US20060198882A1, “Stable liposomes or micelles comprising a sphinolipid and a peg-lipopolymer” (priority 2003, published 2006).
Where two headings read alike, the source gives them in different places. Each block holds one molecule with its values, some of them ahead of it.

Assays:
[1] = Surface-pressure area isotherms; type: physicochemical; conditions: for minimal area per molecule: constant pressure of 20 mN/m; for collapse point pressure of monolayer: pure water sub-phase; for Area/molecule: table, monolayer on pure water sub-phase
Experimental: The tested ceramides (C2 Cer, C4 Cer, C6 Cer, C8 Cer, C16 Cer) were dried in vacuum overnight, weighted and dissolved in hexane/isopropanol (3:2 vol.) to make the following stock solutions.
The surface-pressure/area isotherms were obtained on pure water sub-phase (similar isotherms were obtained on 140 mM NaCl). Barrier speed during compression was […] for all monolayers.
The minimal area per molecule of different ceramides (C2 Cer, C4 Cer, C6 Cer, C8 Cer, C16 Cer) was calculated at the constant pressure of 20 mN/m. […] The area per molecule of C2 Cer, C4 Cer, C8 Cer, C16 Cer was about 38, 46, 45.5, and 37.5^2, respectively.

[2] = Partition in the two phases of the Dole system; type: physicochemical
[3] = Size distribution of ceramide dispersions by DLS; type: physicochemical
Experimental: The particle size distribution of all liposome dispersions prepared was determined at 25° C. by dynamic light-scattering (DLS) using the ALV-NIBS/HPPS ALV-Laser, Vertriebsgesellschaft GmbH, (Langen, Germany) instrument.
However, so far the biological activity of the ceramides was not evaluated in vivo in spite their potential beneficial activity due to difficulties in their delivery. As mentioned above, ceramides by themselves are difficult to be dispersed in serum-free medium. […] When a volume of ceramides (C2Cer, C6Cer, and C16Cer) in ethanol:dodecane (98:2 v/v) was diluted into 100 volumes of serum-free medium a milky translucent dispersion was formed.
However, when these ceramide dispersions were diluted further (final dilution 1:1000) in serum-containing medium, a 4-6 fold increase in particle size was observed. As a control, when the solvents ethanol:dodecane (98:2) were mixed by themselves with medium without ceramides, no particles were detected by DLS. Also, for comparison, when ceramide solutions in ethanol (without dodecane) were diluted 1:100 in serum-containing medium very large particles were observed by DLS (Table 11).

OV-1063 = assay: Methylene blue assay of cell survival; type: cell-based, human; conditions: Table 8B
Description: (§1) Several tumor cell lines in monolayers were used. A human ovarian carcinoma cell line (OV-1063), established at the Hadassah University Hospital, a human colon carcinoma cell line (C-26), a DOX-sensitive M-109S ([…]), and a DOX-resistant, M-109R ([…]). All cell lines were maintained in RPMI-1640 medium supplemented with 10% FCS, antibiotics, and glutamine. All culture medium components were purchased from Biological Industries (Beit-HaEmek, Israel). Both cell lines were maintained at 37° C. in a water-jacketed CO2 incubator.
(§2) a) Various ceramides (Cer) with different chain lengths: short (C2 Cer and C4 Cer), medium (C6 Cer and C8 Cer), and long (C16 Cer) were first dissolved in 100% ethanol to a concentration of 30 mM, added to a serum-containing medium and mixed immediately. The final ethanol concentration in the serum-containing culture medium ranged from 0.1-0.5% (depending on the type of ceramide (Cer)).
(§3) b) Various ceramides with different chain lengths: short C2 Cer, medium C6 Cer, and long C16 Cer were dissolved in ethanol:dodecane (98:2 v/v) to a concentration of 30 mM and added to serum-free medium and mixed. Final concentrations of the ethanol and dodecane in the culture medium containing 10% of FCS ranged from 0.098-0.49% and 0.002-0.01%, respectively, depending on the type of ceramide.
(§4) The cytotoxicity of the examined assemblies comprising ceramide was tested by the methylene blue ([…]) staining assay [Gorodetsky, R. et al. Int. J. Cancer. 75:635-642 (1998)]. A known number of exponentially growing cells in 200 μL of medium were plated in 96-microwell, flat-bottomed plates. For each of the variants tested, 4 wells were used. Following 24 hr of incubation in culture, 20 μL of different concentrations of the examined assemblies were added to each well containing untreated cells.
(§5) The following controls were used: Citrate buffer (5 mM, pH 7); Ethanol solution in medium RPMI 1640 (final concentration of 0.1%); A solution RPMI 1640 of ethanol:dodecane (98:2 […]) at a final concentration of 0.1% and 0.2%, respectively.
(§6) Cells were exposed to assemblies for 4, 24, 72 or 96 hr. At the end of assembly exposure, for a fixed time interval, the drug-treated cells, as well as parallel control cells, were washed, and the incubation continued in fresh medium until termination of the experiment. Following 72 hr or 96 hr of growth, cells were fixed by adding 50 μL of 2.5% glutaraldehyde to each well for 15 min. Fixed cells were rinsed 10 times with deionized water and once with borate buffer (0.1 M, pH 8.5), dried, and stained with MB (100 μL of 1% solution in 0.1 M borate buffer, pH 8.5) for 1 h at room temperature (r.t.). Stained cells were rinsed thoroughly with de-ionized water to remove any non-cell-bound dye and then dried. The MB bound to the fixed cells was extracted by incubation at 37° C. with 200 μL of 0.1 N HCl for 1 h, and the net optical density of the dye in each well was determined by a plate spectrophotometer (Labsystems Multyskan Bichromatic, Finland) at 620 nm.

C-26 = assay: Methylene blue assay of cell survival; type: cell-based, human
Description: as §1, §2, §3, §4, §5, §6

OV-1063 cells = assay: Apoptosis by chromatin morphology (Hoechst-33342, confocal microscopy); type: cell-based, human; conditions: for Apoptotic OV-1063 cells (% of total cell number), 16 hr: IC50 concentrations
Experimental: (§7) a) The morphology of chromatin was assessed by staining with Hoechst-33342 obtained from Calbiochem (La Jolla, Calif.), a molecule which when reside in the minor groove of the DNA strand enhance its fluorescence intensity and, therefore, it is preferentially stains dsDNA [Jouvet, P. Mol. Biol. Cell 11:1919-1932 (2000)]. Briefly, samples containing 5*10^5 cells were cultured on 6-well plates covered with a glass coverslip. After treatment of cells with IC50 of drugs, cells were washed with PBS and fixated with 4% formaldehyde. After that cells were stained with Hoechst-33342 (5 μg/ml) and washed. Thereafter, glass coverslip was placed on a glass slide and photographed using a CLMS.

C-26 cells = assay: as above; type: cell-based, human
Experimental: as §7

[4] = read-out: IC50 (μM), 4 hr OV-1063
[5] = read-out: IC50 (μM), 24 hr OV-1063
[6] = read-out: IC50 (μM), 72 hr OV-1063
[7] = Table 8A, C-26 cells, free ceramide dispersions, read-out: IC50 (μM), 4 hr
[8] = Table 8A, C-26 cells, read-out: IC50 (μM), 24 hr
[9] = Table 8A, C-26 cells, read-out: IC50 (μM), 72 hr
[10] = Table 8B, read-out: IC50 (μM), 4 hr C-26
[11] = Table 8B, read-out: IC50 (μM), 24 hr C-26
[12] = Table 8B, read-out: IC50 (μM), 72 hr C-26

SMILES: CCCCCCCCCCCCC/C=C/[C@@H](O)[C@H](CO)NC(=O)CCCCC [C6Cer, N-hexanoyl-D-erythro-sphingosine]
minimal area per molecule [1]: about 50 Å^2 | collapse point pressure of monolayer [1]: about 42 mN/m | Area/molecule [1]: 50 A^2 | Liposome formation (being a liposome forming lipid by itself) [2]: No | Size (nm), Ethanol dispersion in serum-containing medium (1:100) [3]: 3780 nm | Size (nm), Ethanol:dodecane (98:2) dispersion in serum-containing medium (1:1000) [3]: 2100 nm | Size (nm), Ethanol:dodecane (98:2) dispersion in serum-free medium (1:100) [3]: 330 nm | IC50 (OV-1063; [4]): 8 ± 0.1 µM | IC50 (OV-1063; [5]): 4.5 ± 0.7 µM | IC50 (OV-1063; [6]): 2.3 ± 1 µM | IC50 (C-26; [7]): 11 ± 5 µM | IC50 (C-26; [8]): 4.1 ± 1.6 µM | IC50 (C-26; [9]): 2.9 ± 1.2 µM | IC50 (C-26; [10]): 11 ± 5 µM | IC50 (C-26; [11]): 4.1 ± 1.6 µM | IC50 (C-26; [12]): 2.9 ± 1.2 µM | Apoptotic OV-1063 cells (% of total cell number), 24 hr (OV-1063 cells): 61% | Apoptotic OV-1063 cells (% of total cell number), 16 hr (OV-1063 cells): 53% | Apoptotic C-26 cells (% of total cell number), 16 hr (C-26 cells): 9% | Apoptotic C-26 cells (% of total cell number), 24 hr (C-26 cells): 18%

SMILES: CCCCCCCCCCCCC/C=C/[C@@H](O)[C@H](CO)NC(C)=O [C2Cer, N-Acetyl-D-erythro-sphingosine]
monolayer stability [1]: did not give a stable monolayer | minimal area per molecule [1]: about 38 Å^2 | collapse point pressure of monolayer [1]: about 42 mN/m | Area/molecule [1]: 38 A^2 | Liposome formation (being a liposome forming lipid by itself) [2]: No | Size (nm), Ethanol dispersion in serum-containing medium (1:100) [3]: 6514 nm | Size (nm), Ethanol:dodecane (98:2) dispersion in serum-containing medium (1:1000) [3]: 1400 nm | Size (nm), Ethanol:dodecane (98:2) dispersion in serum-free medium (1:100) [3]: 330 nm | IC50 (OV-1063; [4]): > 80 µM | IC50 (OV-1063; [5]): > 30 µM | IC50 (OV-1063; [6]): 25 ± 1.9 µM | IC50 (C-26; [7]): > 60 µM | IC50 (C-26; [8]): > 30 µM | IC50 (C-26; [9]): 20 ± 1 µM | IC50 (C-26; [10]): > 60 µM | IC50 (C-26; [11]): > 30 µM | IC50 (C-26; [12]): 20 ± 1 µM | Apoptotic OV-1063 cells (% of total cell number), 24 hr (OV-1063 cells): 60% | Apoptotic OV-1063 cells (% of total cell number), 16 hr (OV-1063 cells): 48% | Apoptotic C-26 cells (% of total cell number), 16 hr (C-26 cells): 7% | Apoptotic C-26 cells (% of total cell number), 24 hr (C-26 cells): 14%

monolayer stability [1]: unstable monolayer | minimal area per molecule [1]: ~37.5 Å^2 | collapse point pressure of monolayer [1]: up to 50 mN/m | Area/molecule [1]: 37.5 A^2 | Liposome formation (being a liposome forming lipid by itself) [2]: No | Size (nm), Ethanol dispersion in serum-containing medium (1:100) [3]: 4740 nm | Size (nm), Ethanol:dodecane (98:2) dispersion in serum-containing medium (1:1000) [3]: 2824 nm | Size (nm), Ethanol:dodecane (98:2) dispersion in serum-free medium (1:100) [3]: 790 nm
SMILES: CCCCCCCCCCCCC/C=C/[C@@H](O)[C@H](CO)NC(=O)CCCCCCCCCCCCCCC [C16Cer, N-palmitoyl-D-erythro-sphingosine]
IC50 (OV-1063; [4]): > 100 µM | IC50 (OV-1063; [5]): > 100 µM | IC50 (OV-1063; [6]): 90 µM | IC50 (C-26; [7]): > 100 µM | IC50 (C-26; [8]): > 100 µM | IC50 (C-26; [9]): 80 µM | IC50 (C-26; [10]): > 100 µM | IC50 (C-26; [11]): > 100 µM | IC50 (C-26; [12]): 80 µM | Apoptotic OV-1063 cells (% of total cell number), 24 hr (OV-1063 cells): 17% | Apoptotic C-26 cells (% of total cell number), 24 hr (C-26 cells): 9%
